# PubChem BioAssay (NCI)
# “And” between values parts separate entries of the source, which are not always exact repeats. Equal entries are not always repeated.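 96-well plates; 48 h exposure; 5 concentrations. Endpoints by linear interpolation between flanking doses. Not reached: highest tested concentration assigned. The concentration for 50% growth inhibition is given as GI50. TGI marks complete inhibition of growth.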
# Key:
# Assay in all cases: growth of human tumour cells (NCI), 48 h
# CCRF-CEM leukemia = test system: CCRF-CEM leukemia
# PC-3 prostate = test system: PC-3 prostate
# RXF 393 renal = test system: RXF 393 renal
# SW-620 colon = test system: SW-620 colon
# MOLT-4 leukemia = test system: MOLT-4 leukemia
# EKVX NSCLC = test system: EKVX NSCLC
# MCF7 breast = test system: MCF7 breast
# IGROV1 ovarian = test system: IGROV1 ovarian
# HCT-116 colon = test system: HCT-116 colon
# U251 CNS = test system: U251 CNS
Structure (SMILES),GI50 (CCRF-CEM leukemia),TGI (CCRF-CEM leukemia),GI50 (PC-3 prostate),TGI (PC-3 prostate),GI50 (RXF 393 renal),TGI (RXF 393 renal),GI50 (SW-620 colon),TGI (SW-620 colon),GI50 (MOLT-4 leukemia),TGI (MOLT-4 leukemia),GI50 (EKVX NSCLC),TGI (EKVX NSCLC),GI50 (MCF7 breast),TGI (MCF7 breast),GI50 (IGROV1 ovarian),TGI (IGROV1 ovarian),GI50 (HCT-116 colon),GI50 (U251 CNS),TGI (U251 CNS),TGI (HCT-116 colon)
Nc1nc(=S)c2ncn(C3OC(CO)C(O)C3O)c2[nH]1 (configuration not stated),0.318 µM,> 68.2 µM,2.34 µM,> 100 µM,34.7 µM,> 100 µM,1.7 µM,> 100 µM,0.433 µM,10.3 µM,2.02 µM,> 100 µM,0.389 µM,> 70.6 µM,3.77 µM,> 35.5 µM,0.347 µM,6.5 µM,> 100 µM,
Cc1ccc(/C=C(/C#N)n2nnc3ncccc32)cc1,3.08 µM,> 100 µM,4.18 µM,21.2 µM,1.54 µM,6.54 µM,1.2 µM,12 µM,3.41 µM,19 µM,2.88 µM,26.9 µM,2.37 µM,18.1 µM,2.28 µM,21.5 µM,2.2 µM,3.41 µM,14.1 µM,11.1 µM
NS(=O)(=O)c1ccc(N=Nc2c(O)[nH]c3ccc(C(=O)NCCc4cnc[nH]4)cc23)cc1,> 25 µM,> 25 µM,> 25 µM,> 25 µM,> 25 µM,> 25 µM,> 25 µM,> 25 µM,> 25 µM,> 25 µM,> 25 µM,> 25 µM,> 25 µM,> 25 µM,> 25 µM,> 25 µM,> 25 µM,> 25 µM,> 25 µM,> 25 µM
O=C(COc1cccc(/C=C2\COc3ccccc3C2=O)c1)c1ccccc1,1.98 µM,7.62 µM,2.11 µM,5.16 µM,2.48 µM,9.29 µM,1.66 µM,3.83 µM,3.26 µM,11.1 µM,7.98 µM,20.6 µM,1.98 µM,4.27 µM,2.18 µM,3.96 µM,2.12 µM,1.65 µM,3.03 µM,4.08 µM
O=C(/C=C/c1ccco1)Nc1ncc(Cc2cccc(C(F)(F)F)c2)s1,0.0682 µM,> 47.8 µM,0.055 µM,> 44.3 µM,0.0576 µM,0.853 µM,0.0422 µM,> 100 µM,0.084 µM,26 µM,0.117 µM,> 55.8 µM,0.0367 µM,> 56.2 µM,0.124 µM,> 32.2 µM,0.0438 µM,0.0532 µM,2.11 µM,> 32.8 µM
CC1NC(C(=O)O)Cc2cc(O)c(O)cc21 (configuration not stated),,> 100 µM,,> 100 µM,,> 100 µM,,> 100 µM,,> 100 µM,,> 100 µM,,> 100 µM,,> 100 µM,,,> 100 µM,> 100 µM
CC(=O)NC(CS)C(=O)O (configuration not stated),,> 100 µM,> 100 µM,> 100 µM,> 100 µM,> 100 µM and 69300 µM,> 100 µM,> 100 µM,> 100 µM,> 100 µM,> 100 µM,> 100 µM and 87600 µM,> 100 µM,> 100 µM and 71300 µM,,16600 µM,> 100 µM,> 100 µM,> 100 µM,> 100 µM and 52800 µM
C=C1C(=O)O[C@@H]2C[C@@H]1CC[C@]1(C)O[C@H]1CC/C(C)=C/CC[C@@]2(C)O,> 100 µM,> 100 µM,96.3 µM,> 100 µM,25.1 µM,55.4 µM,15.8 µM,33.7 µM,11.7 µM,28.1 µM,23.4 µM,80.2 µM,15.2 µM,36 µM,31.7 µM,> 100 µM,13.1 µM,15.5 µM,28.9 µM,25.8 µM
O=C(Nc1ccc(Oc2ccc(NC(=O)Nc3ccccc3Cl)cc2)cc1)Nc1ccccc1Cl,4.72 µM,28.8 µM,2.11 µM,,2.99 µM,11.4 µM,10.6 µM,> 100 µM,12.1 µM,32.9 µM,16.4 µM,> 100 µM,8.54 µM,> 100 µM,3.57 µM,14.8 µM,1.59 µM,1.71 µM,20.5 µM,> 100 µM
O=C(/C=C\c1cc(Br)ccc1O)/C=C/c1cc(Br)ccc1O,0.282 µM,10.5 µM,0.63 µM,3.08 µM,0.348 µM,1.41 µM,0.379 µM,1.61 µM,0.316 µM,12 µM,1.54 µM,3.18 µM,0.339 µM,2.13 µM,1.6 µM,3.62 µM,0.345 µM,0.383 µM,1.55 µM,1.26 µM
CCCCOC(=O)/C=C\C(=O)NC(N)=O,15.9 µM,35.8 µM,25 µM,69.7 µM,12.7 µM,27.1 µM,14.5 µM,32.3 µM,38.3 µM,> 100 µM,23.1 µM,56.9 µM,13 µM,76.7 µM,20.4 µM,54.3 µM,13.4 µM,26.2 µM,89.3 µM,27.8 µM
COc1ccc(N=N/C(=N\NC(=O)c2cc(Br)ccc2O)c2ccc(N(CCC#N)CCC#N)cc2OC)cc1,57.1 µg/mL,> 150 µg/mL,57.6 µg/mL,> 150 µg/mL,50.2 µg/mL,> 150 µg/mL,> 150 µg/mL,> 150 µg/mL,52 µg/mL,> 150 µg/mL,> 150 µg/mL,> 150 µg/mL,58.7 µg/mL,> 150 µg/mL,39.6 µg/mL,> 150 µg/mL,60.6 µg/mL,> 150 µg/mL,> 150 µg/mL,> 150 µg/mL
CCC(CC)c1cc(N[C@H]2CC[C@H](N)C2)n2nccc2n1,1.08 µM,> 100 µM,2.43 µM,> 100 µM,0.632 µM,2.36 µM,0.626 µM,> 100 µM,1.36 µM,> 100 µM,1.7 µM,5.16 µM,0.328 µM,> 100 µM,2.38 µM,> 100 µM,0.402 µM,0.858 µM,> 100 µM,> 100 µM
COC(=O)CC1C2(C)C3=C(C)C(c4ccoc4)CC3OC2C2OC(=O)C3(C)C=CC(=O)C1(C)C23 (configuration not stated),,2.17 µM,,3.43 µM,,3 µM,,4.39 µM,,1.77 µM,,3.89 µM,,1.95 µM,,3.29 µM,,,2.95 µM,2.28 µM
NC(CP(=O)(O)O)C(=O)O (configuration not stated),,> 100 µM,,> 100 µM,,> 100 µM,,> 100 µM,,> 100 µM,,> 100 µM,,> 100 µM,,> 100 µM,,,> 100 µM,> 100 µM
CCCCCCCCCCCCNC(=O)N[C@H](C(=O)N[C@H]1/C=C/CCNC(=O)/C=C/[C@H](C)NC1=O)C(C)C,0.0495 µM,5.13 µM,0.0154 µM,0.0665 µM,0.0166 µM,0.0405 µM,0.0504 µM,1.34 µM,0.0448 µM,1.13 µM,0.477 µM,12.6 µM,0.0577 µM,15.6 µM,0.06 µM,2.24 µM,0.0365 µM,0.0412 µM,0.209 µM,0.163 µM
Cc1cc(O[C@@H]2O[C@@H](C)[C@H](O)[C@@H](O)[C@H]2O)c2c3c(c(O[C@@H]4O[C@@H](C)[C@H](O)[C@@H](O)[C@H]4O)cc2c1)C(=O)c1c(O)cccc1C3=O,> 30 µM,> 30 µM,> 30 µM,> 30 µM,> 30 µM,> 30 µM,> 30 µM,> 30 µM,> 30 µM,> 30 µM,> 30 µM,> 30 µM,> 30 µM,> 30 µM,> 30 µM,> 30 µM,> 30 µM,> 30 µM,> 30 µM,> 30 µM
CCNC(=O)Oc1ccc(/C(=C(\C)c2ccc(Cl)cc2)c2ccc(OCCN(CC)CC)cc2)cc1,3.38 µM,12.2 µM,3.89 µM,14.1 µM,2.35 µM,9.84 µM,2.02 µM,4.23 µM,3.07 µM,11 µM,10.3 µM,23.6 µM,1.13 µM,10.9 µM,3.66 µM,15.3 µM,2.04 µM,4.26 µM,13.5 µM,4.86 µM
O=C(Nc1ccn(C2CC(I)C(COC(c3ccccc3)(c3ccccc3)c3ccccc3)O2)c(=O)n1)c1ccccc1 (configuration not stated),,17.3 µM,,20.9 µM,,13.2 µM,,21.5 µM,,12.1 µM,,21.5 µM,,> 31.6 µM,,21.5 µM,,,14.5 µM,12.2 µM
CCC1(OC(=O)CNC)C(=O)OCc2c1cc1n(c2=O)Cc2cc3ccccc3nc2-1 (configuration not stated),,0.468 µM,,> 100 µM,,0.115 µM,,19.5 µM,,0.0631 µM,,17 µM,,0.198 µM,,2.21 µM,,,0.293 µM,0.264 µM
COc1cc(-c2cc(-c3cccs3)c(C#N)c(N3CCOCC3)n2)cc(OC)c1OC,5.66 µM,> 100 µM,5.29 µM,> 100 µM,3.47 µM,> 62.8 µM,1.95 µM,4.62 µM,4.09 µM,> 100 µM,24.2 µM,> 100 µM,6.68 µM,> 100 µM,13.7 µM,> 100 µM,4.14 µM,4.94 µM,> 100 µM,> 100 µM
CC(C)n1nc(C#Cc2cccc(O)c2)c2c(N)ncnc21,1.65 µM and 1.15 µM,50 µM and 13.3 µM,1.37 µM and 1.18 µM,12.3 µM and 13.9 µM,1.15 µM and 0.481 µM,4.2 µM and 1.5 µM,2.08 µM and 1.72 µM,50 µM and 31.9 µM,1.2 µM and 0.412 µM,9.4 µM and 4.7 µM,9.41 µM and 7.49 µM,29 µM and 25.7 µM,1.62 µM and 1.51 µM,50 µM and 11.9 µM,0.856 µM,2.24 µM,1.17 µM and 0.586 µM,2.83 µM and 2.95 µM,50 µM and 12.8 µM,7.78 µM and 10.8 µM
COc1ccc(/C(=C/c2ccc3ccccc3c2)c2nn[nH]n2)cc1OC,3.33 µM,> 100 µM,2.36 µM,> 100 µM,2.48 µM,9.07 µM,1.36 µM,> 100 µM,4.16 µM,> 100 µM,18.2 µM,> 100 µM,4.12 µM,> 100 µM,4.23 µM,> 100 µM,2.42 µM,4.46 µM,> 100 µM,> 100 µM
NC(=O)c1cc(I)ccc1NC(=O)/C=C/c1ccccc1Cl,0.363 µM,,0.572 µM,> 35.4 µM,0.375 µM,2.18 µM,0.462 µM,> 39.6 µM,0.765 µM,,1.33 µM,> 69 µM,0.333 µM,25.7 µM,0.352 µM,16.9 µM,0.465 µM,0.578 µM,19.5 µM,11.9 µM
Clc1ccc(-c2nc3c(-c4ccccc4)nc(-c4ccccc4)cn3c2-c2ccc(Cl)cc2)cc1,> 100 µM,> 100 µM,> 100 µM,> 100 µM,> 100 µM,> 100 µM,> 100 µM,> 100 µM,> 100 µM,> 100 µM,> 100 µM,> 100 µM,> 100 µM,> 100 µM,> 100 µM,> 100 µM,> 100 µM,> 100 µM,> 100 µM,> 100 µM
CCOC(=O)C1=C(C)NC(C)=C(C(=O)OCCNC(=O)c2ccc(N=[N+]=[N-])cc2)C1c1ccccc1C(F)(F)F (configuration not stated),,21.5 µM,,21.5 µM,,21.5 µM,,21.5 µM,,13.5 µM,,21.5 µM,,12.2 µM,,21.5 µM,,,21.5 µM,21.5 µM
COC(=O)[C@H](Cc1ccccc1)NNC(=O)c1csc([C@@H](C[C@H](C(C)C)N(C)C(=O)[C@@H](NC(=O)[C@H]2CCCCN2C)C2CC2)OC(C)=O)n1,0.00377 µM and 0.0025 µM and 0.0213 µM,25 µM and > 100 µM,,25 µM and > 100 µM,0.0025 µM,25 µM,,25 µM and > 100 µM,,25 µM and > 100 µM,,> 100 µM,0.00392 µM and 0.0025 µM and 0.0244 µM,25 µM and > 100 µM,,25 µM and > 100 µM,,,25 µM and > 100 µM,25 µM and > 100 µM
